According to patent publication US20110183389A1, “PRODUCTION OF LACTIC ACID FROM HEMICELLULOSE EXTRACTS” (priority 2009, published 2011):
Like-named read-outs stand apart in the source and are kept apart here.

System: Bacillus coagulans MXL-9
Conditions: for fermentation time: control consumed xylose within 14 hours; for Ferment Time / Acetic Acid Produced / Ethanol Produced / Formic Acid Produced / Lactic Acid Prod. Rate / Lactic Acid Produced / Lactic Acid Yield / Total Products Yield / Xylose Consumed: pH 6.5, 50° C.
[1] = 30 g/L inhibitor, 20 g/L xylose
[2] = inhibitor conc. 10 g/L, 20 g/L xylose
[3] = inhibitor conc. 20 g/L, 20 g/L xylose
[4] = inhibitor conc. 30 g/L, 20 g/L xylose

Row | Compound | Ferment Time [2] | Acetic Acid Produced (inhibitor conc. 10 g/L) | Ethanol Produced (inhibitor conc. 10 g/L) | Formic Acid Produced (inhibitor conc. 10 g/L) | Lactic Acid Prod. Rate (inhibitor conc. 10 g/L) | Lactic Acid Produced (inhibitor conc. 10 g/L) | Lactic Acid Yield (inhibitor conc. 10 g/L) | Total Products Yield (inhibitor conc. 10 g/L) | Xylose Consumed (inhibitor conc. 10 g/L) | Ferment Time [3] | Acetic Acid Produced (inhibitor conc. 20 g/L) | Ethanol Produced (inhibitor conc. 20 g/L) | Formic Acid Produced (inhibitor conc. 20 g/L) | Lactic Acid Prod. Rate (inhibitor conc. 20 g/L) | Lactic Acid Produced (inhibitor conc. 20 g/L) | Lactic Acid Yield (inhibitor conc. 20 g/L) | Total Products Yield (inhibitor conc. 20 g/L) | Xylose Consumed (inhibitor conc. 20 g/L) | Ferment Time [4] | Acetic Acid Produced (inhibitor conc. 30 g/L) | also measured
1 | CC(=O)O [HAc, acetic acid] | 17 h | 0.0 g/L | 1.0 g/L | 1.1 g/L | 1.0 g/L/h | 17.3 g/L | 81.0% | 90.7% | 21.4 g/L | 22 h | 0.0 g/L | 0.8 g/L | 0.5 g/L | 0.9 g/L/h | 19.3 g/L | 93.6% | 99.8% | 20.6 g/L | 60 h | 0.0 g/L | fermentation time (10 g/L inhibitor): complete in under a day; fermentation time (20 g/L inhibitor): complete in under a day; lag phase [1]: longer lag phase; overall lactic acid yield [1]: not diminished; fermentation time (30 g/L inhibitor): two days; Ethanol Produced (inhibitor conc. 30 g/L): 0.4 g/L; Formic Acid Produced (inhibitor conc. 30 g/L): 0.4 g/L; Lactic Acid Prod. Rate (inhibitor conc. 30 g/L): 0.3 g/L/h; Lactic Acid Produced (inhibitor conc. 30 g/L): 18.5 g/L; Lactic Acid Yield (inhibitor conc. 30 g/L): 91.4%; Total Products Yield (inhibitor conc. 30 g/L): 95.3%; Xylose Consumed (inhibitor conc. 30 g/L): 20.2 g/L
2 | [Na] [Na, sodium] | 32 h | 0.8 g/L | 0.0 g/L | 1.3 g/L | 0.6 g/L/h | 18.8 g/L | 83.1% | 92.4% | 22.4 g/L | 62 h | 0.7 g/L | 0.0 g/L | 1.3 g/L | 0.3 g/L/h | 19.6 g/L | 85.9% | 94.5% | 22.7 g/L | 150 h | 0.0 g/L | lag time (20 g/L inhibitor, xylose): increased the lag time; overall product yield (20 g/L inhibitor, xylose): did not affect overall product yield; inhibition of xylose fermentation (30 g/L inhibitor): completely inhibitory; cell growth (30 g/L inhibitor, over the course of 6 days): no cell growth occurred; Ethanol Produced (inhibitor conc. 30 g/L): 0.0 g/L; Formic Acid Produced (inhibitor conc. 30 g/L): 0.0 g/L; Lactic Acid Prod. Rate (inhibitor conc. 30 g/L): 0.0 g/L/h; Lactic Acid Produced (inhibitor conc. 30 g/L): 0.0 g/L; Lactic Acid Yield (inhibitor conc. 30 g/L): 2.6%; Total Products Yield (inhibitor conc. 30 g/L): 2.6%; Xylose Consumed (inhibitor conc. 30 g/L): 0.8 g/L
